Experimental data reported in patent US5561150A, “Tricyclic pyrazole derivatives” (Hoffman-La Roche Inc., priority 1994, dated 1996).
Where a name gives a salt, the structure may show the parent alone. Read-outs that look alike come from different tables or passages of the source.

How the values were obtained:
5HT2A receptor = 5HT2A receptor (Homo sapiens, UniProt P28223); assay: [3H]-DOB binding assay, 5HT2A receptor (test method c)
Procedure: (§1) The binding of compounds of formula I in accordance with the invention to serotonin receptors was determined in vitro by standard methods. The compounds were investigated in accordance with the assays given hereinafter:
c) For the binding to the 5HT2A receptor in accordance with the [3H]-DOB binding assay according to the method of T. Branchek et al., Molecular Pharmacology 38, 604-609 (1990).
(§2) The pki values (pki =-log10 Ki) of the test substances are given. The ki value is defined by the following formula: [formula] in which the IC50 values are those concentrations of test compounds in nmol by which 50% of the receptor-bound ligands are displaced. [L] is the concentration of ligand and the KD value is the dissociation constant of the ligand.

[1] = target: T1, recombinant human-5HT1A receptors (Homo sapiens, UniProt P08908); assay: Displacement assay with [3H]-5-HT (1 nM) on recombinant human 5HT1A receptors expressed in 3T3 cells of mice (test method a); type: binding
T1 construct: expressed in transfected cells; host or cells: 3T3 cells of mice (membranes)
T1 sequence (P08908 1-422): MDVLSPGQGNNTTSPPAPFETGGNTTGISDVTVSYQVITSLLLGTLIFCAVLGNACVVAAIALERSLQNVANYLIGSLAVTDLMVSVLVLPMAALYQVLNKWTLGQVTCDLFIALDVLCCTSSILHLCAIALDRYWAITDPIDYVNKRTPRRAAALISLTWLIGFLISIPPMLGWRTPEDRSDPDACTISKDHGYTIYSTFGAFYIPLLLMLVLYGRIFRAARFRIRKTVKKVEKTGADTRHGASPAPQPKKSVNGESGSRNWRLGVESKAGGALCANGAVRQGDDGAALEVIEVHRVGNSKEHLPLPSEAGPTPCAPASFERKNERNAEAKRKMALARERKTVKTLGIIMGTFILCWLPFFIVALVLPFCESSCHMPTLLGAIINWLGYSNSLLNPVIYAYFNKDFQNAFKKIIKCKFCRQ
Procedure: as §1
[L] is the concentration of ligand and the KD value is the dissociation constant of the ligand.

5HT2C receptor [2] = assay: [3H]-5-HT binding assay, 5HT2C receptor (test method b); settings: radioligand [3H]-5-HT, pki = -log10 Ki
Procedure: as §1
b) For the binding to the 5HT2C receptor in accordance with the [3H]-5-HT binding assay according to the method of S.J Peroutka et al., Brain Research 584, 191-196 (1992).
as §2

5HT2C receptor [3] = target: T2, 5HT2C receptor (Rattus norvegicus, UniProt P08909); assay: Penile erection (rats); type: in vivo; settings: 0.75 h, within 45 minutes after administration
T2 construct: from tissue; host or cells: living rats (in vivo, s.c. dosing)
T2 sequence (P08909 33-460): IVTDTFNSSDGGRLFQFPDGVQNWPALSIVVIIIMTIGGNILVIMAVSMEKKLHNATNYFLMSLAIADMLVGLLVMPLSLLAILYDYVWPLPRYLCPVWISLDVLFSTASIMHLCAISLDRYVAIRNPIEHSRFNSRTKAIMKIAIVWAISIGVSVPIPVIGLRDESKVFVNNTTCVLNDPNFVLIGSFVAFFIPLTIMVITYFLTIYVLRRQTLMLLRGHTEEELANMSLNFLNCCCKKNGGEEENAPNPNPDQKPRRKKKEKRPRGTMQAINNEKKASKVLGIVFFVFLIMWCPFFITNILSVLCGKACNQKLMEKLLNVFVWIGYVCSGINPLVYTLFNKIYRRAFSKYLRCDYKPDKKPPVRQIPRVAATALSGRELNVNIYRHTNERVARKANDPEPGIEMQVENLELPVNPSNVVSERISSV
Procedure: It has been shown that penile erection is dependent on stimulation of the 5HT2C receptor (see Berendsen & Broekkamp, Eur. J. Pharmacol. 135, 179-184 (1987)).
The number of penile erections was determined within 45 minutes after administration of the test substance. The ED50 is the dose which causes 50% of these erections.

[4] = po, p.o., read-out: ED50 penile erection, p.o.
[5] = sc, s.c., read-out: ED50 penile erection, s.c.
[6] = 5HT1A, radioligand [3H]-5-HT (1 nM), pki = -log10 Ki, read-out: pKi, test method a (converted)

Sequence of 5HT2A receptor (P28223 whole entry): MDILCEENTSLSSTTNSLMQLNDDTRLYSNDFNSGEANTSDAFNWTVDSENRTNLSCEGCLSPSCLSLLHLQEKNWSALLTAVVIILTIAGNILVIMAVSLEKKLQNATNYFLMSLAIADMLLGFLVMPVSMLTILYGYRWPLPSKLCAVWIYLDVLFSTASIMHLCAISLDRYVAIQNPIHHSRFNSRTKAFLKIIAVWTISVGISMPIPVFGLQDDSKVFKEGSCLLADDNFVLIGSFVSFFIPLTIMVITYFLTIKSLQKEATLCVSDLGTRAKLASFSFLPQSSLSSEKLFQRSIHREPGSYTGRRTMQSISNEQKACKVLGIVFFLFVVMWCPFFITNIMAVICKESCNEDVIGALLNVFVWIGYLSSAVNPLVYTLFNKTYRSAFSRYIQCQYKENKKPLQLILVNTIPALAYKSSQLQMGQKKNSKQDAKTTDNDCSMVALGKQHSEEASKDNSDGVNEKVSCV

COc1ccc2c(c1)-c1c(cnn1CC(C)N)C2 (racemic) [Example 1, (RS)-2-(7-methoxy-1,4-dihydro-indeno[2,1-c]pyrazol-1-yl)-1-methyl-ethylamine fumarate (1:1)]
Ki (5HT2A receptor): 93.3 nM | Ki [1]: 355 nM | pKi, test method b (5HT2C receptor [2]): 8.26 | ED50 (5HT2C receptor [3]; [4]): 3.2 mg/kg | ED50 (5HT2C receptor [3]; [5]): 0.32 mg/kg

Cc1ccc2c(c1)-c1c(cnn1CC(C)N)C2(C)C (racemic) [Example 5, (RS)-2-(4,4,7-trimethyl-1,4-dihydroindeno[2,1-c]pyrazol-1-yl)-1-methyl-ethylamine fumarate (1:1)]
Ki (5HT2A receptor): 191 nM | Ki [1, 6]: 631 nM | pKi, test method b (5HT2C receptor [2]): 7.90

COc1ccc2c(c1)-c1c(cnn1CC(C)N)C2(C)C (racemic) [Example 6, (RS)-2-(7-methoxy-4,4-dimethyl-1,4-dihydroindeno[2,1-c]pyrazol-1-yl)-1-methyl-ethylamine fumarate (1:1)]
Ki (5HT2A receptor): 49 nM | Ki [1]: 1820 nM | pKi, test method b (5HT2C receptor [2]): 8.33

COc1ccc2c(c1)-c1c(c(C)nn1CC(C)N)C2 (racemic) [Example 8]
Ki (5HT2A receptor): 832 nM | Ki [1]: 6760 nM | pKi, test method b (5HT2C receptor [2]): 7.13

Cc1ccc2c(c1)-c1c(cnn1CC(C)N)C2 (racemic) [Example 10, (RS)-2-(7-methyl-1,4-dihydroindeno[2,1-c]pyrazol-1-yl)-1-methyl-ethylamine fumarate (1:1)]
Ki (5HT2A receptor): 50.1 nM | Ki [1, 6]: 1660 nM | pKi, test method b (5HT2C receptor [2]): 8.32

CC(N)Cn1ncc2c1-c1cc(F)ccc1C2 (racemic) [Example 11, (RS)-2-(7-fluoro-1,4-dihydroindeno[2,1-c]pyrazol-1-yl)-1-methyl-ethylaminefumarate (1:1)]
Ki (5HT2A receptor): 263 nM | Ki [1, 6]: 1780 nM | pKi, test method b (5HT2C receptor [2]): 7.51

CC(N)Cn1ncc2c1-c1cc(F)ccc1C2(C)C (racemic) [Example 12, (RS)-2-(7-fluoro-4,4-dimethyl-1,4-dihydroindeno[2,1-c]pyrazol-1-yl)-1-methyl-ethylamine fumarate (1:1)]
Ki (5HT2A receptor): 141 nM | Ki [1]: 1230 nM | pKi, test method b (5HT2C receptor [2]): 7.72

CCOc1ccc2c(c1)-c1c(cnn1CC(C)N)C2 (racemic) [Example 13, (RS)-2-(7-ethoxy-1,4-dihydroindeno[2,1-c]pyrazol-1-yl)-1-methyl-ethylaminefumarate (1:1)]
Ki (5HT2A receptor): 49 nM | Ki [1, 6]: 1200 nM | pKi, test method b (5HT2C receptor [2]): 8.38 | ED50 (5HT2C receptor [3]; [4]): 2.7 mg/kg | ED50 (5HT2C receptor [3]; [5]): 0.5 mg/kg

COc1ccc2c(c1)Cc1cnn(CC(C)N)c1-2 (racemic) [Example 14, (RS)-2-(6-methoxy-1,4-dihydroindeno[2,1-c]pyrazol-1-yl)-1-methyl-ethylamine fumarate (1:1)]
Ki (5HT2A receptor): 1550 nM | Ki [1, 6]: 2340 nM | pKi, test method b (5HT2C receptor [2]): 6.70

COc1ccc2c(c1)-c1c(cnn1CC(C)N)CC2.O=C(O)/C=C/C(=O)O (racemic) [Example 15, (RS)-2-(4,5-dihydro-8-methoxy-1H-benz[g]indazol-1-yl)-1-methyl-ethylamine fumarate (1:1)]
Ki (5HT2A receptor): 81.3 nM | Ki [1]: 1290 nM | pKi, test method b (5HT2C receptor [2]): 8.28

COc1ccc2ccc3cnn(CC(C)N)c3c2c1 (racemic) [Example 16, (RS)-2-(8-methoxy-1H-benz[g]indazol-1-yl)-1-methyl-ethylamine fumarate (1:0.5)]
Ki (5HT2A receptor): 25.1 nM | Ki [1]: 200 nM | pKi, test method b (5HT2C receptor [2]): 8.94

COc1ccc2c(c1)-c1c(cnn1C[C@H](C)N)C2 [Example 2, (S)-2-(7-methoxy-1,4-dihydro-indeno[2,1-c]pyrazol-1-yl)-1-methyl-ethylamine fumarate (1:1)]
Ki (5HT2A receptor): 49 nM | Ki [1]: 339 nM | pKi, test method b (5HT2C receptor [2]): 8.57 | ED50 (5HT2C receptor [3]; [4]): 1.4 mg/kg | ED50 (5HT2C receptor [3]; [5]): 0.32 mg/kg

Cc1ccc2c(c1)-c1c(cnn1C[C@H](C)N)C2(C)C [Example 3, (S)-2-(4,4,7-trimethyl-1,4-dihydro-indeno[2,1-c]pyrazol-1-yl)-1-methyl-ethylamine fumarate (1:1)]
Ki (5HT2A receptor): 229 nM | Ki [1, 6]: 4170 nM | pKi, test method b (5HT2C receptor [2]): 8.32

COc1ccc2c(c1)-c1c(cnn1C[C@H](C)N)C2(C)C [Example 4, (S)-2-(7-methoxy-4,4-dimethyl-1,4-dihydroindeno[2,1-c]pyrazol-1-yl)-1-methyl-ethylamine fumarate (1:1)]
Ki (5HT2A receptor): 37.2 nM | Ki [1]: 2630 nM | pKi, test method b (5HT2C receptor [2]): 8.65

COc1ccc2c(c1)-c1c(cnn1C[C@@H](C)N)C2 [Example 7, (R)-2-(7-methoxy-1,4-dihydro-indeno[2,1-c]pyrazol-1-yl)-1-methyl-ethylamine fumarate (1:1)]
Ki (5HT2A receptor): 363 nM | Ki [1]: 2450 nM | pKi, test method b (5HT2C receptor [2]): 7.73

CCOc1ccc2c(c1)-c1c(cnn1C[C@@H](C)N)C2 [Example 17, (R)-2-(7-ethoxy-1,4-dihydro-indeno[2,1-c]pyrazol-1-yl)-1-methyl-ethylaminefumarate (1:1)]
Ki (5HT2A receptor): 209 nM | pKi, test method b (5HT2C receptor [2]): 7.40

CCOc1ccc2c(c1)-c1c(cnn1C[C@H](C)N)C2 [Example 18, (S)-2-(7-ethoxy-1,4-dihydro-indeno[2,1-c]pyrazol-1-yl)-1-methyl-ethylaminefumarate (1:1)]
Ki (5HT2A receptor): 49 nM | Ki [1, 6]: 1000 nM | pKi, test method b (5HT2C receptor [2]): 8.48 | ED50 (5HT2C receptor [3]; [4]): 2.3 mg/kg | ED50 (5HT2C receptor [3]; [5]): 0.7 mg/kg
